Test results published in PubChem BioAssay AID1745844 (Carcinogenic Potency Database (CPDB), 2022).
Activity calls are given as the source filed them. The rule behind the calls is not given here.

System: rodent lifetime carcinogenesis bioassay, tumor incidence TD50
Test: carcinogenic potency in animals, long-term in vivo studies, CPDB compilation (AID 1745844)
Conditions: in feed

Nc1ccc(N)cc1 was tested, and the TD50 (mouse, strain B6C3F1, females, site: any site (literature study), lesion: several types, types named in the paper, dosed 103 weeks, study length 104 weeks) was 1500 mg/kg/day (inactive), the TD50 (mouse, strain B6C3F1, females, site: liver, lesion: hepatocellular adenoma + hepatocellular carcinoma + neoplastic nodule, dosed 103 weeks, study length 104 weeks) was 1370 mg/kg/day and the TD50 (mouse, strain B6C3F1, females, site: lung, lesion: alveolar/bronchiolar adenoma + alveolar/bronchiolar carcinoma, dosed 103 weeks, study length 104 weeks) was 1390 mg/kg/day. For the same compound, the carcinogen call (mouse, strain B6C3F1, males, site: any site (literature study), lesion: several types, types named in the paper, dosed 103 weeks, study length 104 weeks) was “negative (inactive)”, the TD50 (rat, strain Fischer 344, females, site: adrenal gland, lesion: pheochromocytoma, dosed 80 weeks, study length 80 weeks) was 4280 mg/kg/day (inactive) and the TD50 (rat, strain Fischer 344, females, site: any site (literature study), lesion: several types, types named in the paper, dosed 103 weeks, study length 116 weeks) was 247 mg/kg/day (inactive). For the same compound, the carcinogen call (rat, strain Fischer 344, males, site: adrenal gland, lesion: pheochromocytoma, dosed 80 weeks, study length 80 weeks) was “negative (inactive)”, the carcinogen call (rat, strain Fischer 344, males, site: any site (literature study), lesion: several types, types named in the paper, dosed 103 weeks, study length 116 weeks) was “negative (inactive)” and the TD50 (rat, strain Fischer 344, males, site: liver, lesion: hepatocellular adenoma + hepatocellular carcinoma + neoplastic nodule, dosed 103 weeks, study length 116 weeks) was 2230 mg/kg/day.
